Reference: patent publication US20250221966A1, “RXFP1 AGONISTS” (BRISTOL-MYERS SQUIBB COMPANY, priority 2021, published 2025)

Biological target: T1, human RXFP1 (Homo sapiens, UniProt Q9HBX9)
T1 construct: expressed in transfected cells
T1 sequence (Q9HBX9 1-757): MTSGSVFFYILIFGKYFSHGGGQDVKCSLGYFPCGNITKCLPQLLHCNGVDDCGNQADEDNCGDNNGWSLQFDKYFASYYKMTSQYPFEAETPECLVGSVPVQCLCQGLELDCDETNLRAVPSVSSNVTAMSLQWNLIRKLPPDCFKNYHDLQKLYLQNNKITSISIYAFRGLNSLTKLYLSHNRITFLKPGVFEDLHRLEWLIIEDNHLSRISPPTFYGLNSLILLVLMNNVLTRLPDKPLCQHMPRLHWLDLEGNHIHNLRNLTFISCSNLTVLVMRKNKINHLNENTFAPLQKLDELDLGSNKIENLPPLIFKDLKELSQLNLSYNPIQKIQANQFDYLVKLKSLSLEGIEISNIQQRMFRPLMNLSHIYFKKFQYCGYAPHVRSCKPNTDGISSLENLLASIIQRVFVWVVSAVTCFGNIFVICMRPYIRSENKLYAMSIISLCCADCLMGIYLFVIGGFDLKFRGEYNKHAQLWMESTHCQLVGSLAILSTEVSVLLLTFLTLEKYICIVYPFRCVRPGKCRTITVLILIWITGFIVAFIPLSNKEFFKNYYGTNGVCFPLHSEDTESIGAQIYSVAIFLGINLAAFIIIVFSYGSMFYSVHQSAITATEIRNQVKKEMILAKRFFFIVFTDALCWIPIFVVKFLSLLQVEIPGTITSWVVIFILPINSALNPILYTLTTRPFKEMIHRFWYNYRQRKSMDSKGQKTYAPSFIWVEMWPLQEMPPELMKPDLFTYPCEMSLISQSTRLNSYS
Assay: RXFP1 cAMP assay (hRXFP1 HEK293 cAMP assay, HTRF)
Format: cell-based
Settings: HEK293 cells stably expressing human RXFP1, 30 min at room temperature, read-out: cAMP hRXFP1 HEK293 Assay EC50
Procedure, shortened: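 HEK293 cells stably expressing human RXFP1 were suspended in HBSS (Ca/Mg) with 20 mM HEPES, 0.05% BSA and 0.5 mM IBMX, then treated with compounds (0.010 nM–50 μM, 2% DMSO final) for 30 min at room temperature. Intracellular cAMP was measured by HTRF, and potency was derived from 4-parameter logistic fits.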

Row | Compound | EC50 [nM]
1 | COc1ccc(-c2cc([C@H](NC(=O)C3CCOCC3)C(F)(F)F)ccc2F)cc1C(=O)N[C@H]1[C@@H](C(=O)Nc2ccc(F)c(C(F)(F)F)c2)[C@H]2CC[C@@H]1/C2=C\C1CCCC1 [compound 955] | 0.1
2 | COc1ccc([C@@]2(O)CO[C@@H]3[C@@H](O)CO[C@@H]32)cc1C(=O)N[C@H]1[C@@H](C(=O)Nc2ccc(F)c(C(F)(F)F)c2)[C@H]2CC[C@@H]1/C2=C\C(F)(F)F [compound 713] | 1670
3 | COc1ccc(N2CCCC(CO)C2)cc1C(=O)N[C@@H]1C2CCC(/C2=C/C2CC2)[C@@H]1C(=O)Nc1ccc(F)c(C(F)(F)F)c1 (single isomer, unassigned) [compound 705] | 1300
4 | COc1ccc(-c2cc(C(OC(=O)NC(C)(C)C)C(=O)O)ccc2F)cc1C(=O)N[C@H]1[C@@H](C(=O)Nc2ccc(F)c(C(F)(F)F)c2)[C@H]2CC[C@@H]1/C2=C\C1CC(F)(F)C1 (some centres unmarked) [compound 935] | 2.5
5 | COc1ccc(N2CC[C@H](O)C2=O)cc1C(=O)N[C@H]1[C@@H](C(=O)Nc2ccc(F)c(C(F)(F)F)c2)[C@H]2CC[C@@H]1/C2=C\C1CC1 [compound 627] | 176
6 | COC(=O)NC(C(=O)O)c1ccc(F)c(-c2ccc(OC)c(C(=O)N[C@@H]3C4CCC(/C4=C/C(F)(F)F)[C@@H]3C(=O)Nc3ccc(F)c(C(F)(F)F)c3)c2)c1 (some centres unmarked) [compound 186] | 25
7 | COc1ccc(C2=NOC3CC(CO)CC23)cc1C(=O)N[C@@H]1C2CCC(/C2=C/C2CC2)[C@@H]1C(=O)Nc1ccc(F)c(C(F)(F)F)c1 (single isomer, unassigned) [compound 432] | 2
8 | COc1ccc(C2=NOC3CC(CO)CC23)cc1C(=O)N[C@H]1[C@@H](C(=O)Nc2ccc(F)c(C(F)(F)F)c2)[C@H]2CC[C@@H]1/C2=C\C1CCCC1 (some centres unmarked) [compound 457] | 2.1
9 | COc1cc(C)c(C2=NOC3COCC23)cc1C(=O)N[C@H]1[C@@H](C(=O)Nc2ccc(F)c(C(F)(F)F)c2)[C@H]2CC[C@@H]1/C2=C\C1CC1 (some centres unmarked) [compound 532] | 22.9
10 | COc1cc(F)c(C2=NOC3COCC23)cc1C(=O)N[C@@H]1C2CCC(/C2=C/C2CC2)[C@@H]1C(=O)Nc1ccc(F)c(C(F)(F)F)c1 (some centres unmarked) [compound 420] | 1
11 | COc1ccc(C2=NOC3(C2)CC(CO)C3)cc1C(=O)N[C@H]1[C@@H](C(=O)Nc2ccc(F)c(C(F)(F)F)c2)[C@H]2CC[C@@H]1/C2=C\C1CC1 (some centres unmarked) [Example 511] | 15.3
12 | COc1ccc(C2=NOC3CC(C(N)=O)CC23)cc1C(=O)N[C@H]1[C@@H](C(=O)Nc2ccc(F)c(C(F)(F)F)c2)[C@H]2CC[C@@H]1/C2=C\C1CC1 (single isomer, unassigned) [compound 587] | 80.8
13 | COc1cc(F)c(F)cc1C(=O)N[C@@H]1C2CCC(/C2=C/c2cnoc2)[C@@H]1C(=O)Nc1ccc(F)c(C(F)(F)F)c1 (some centres unmarked) [compound 39] | 88
14 | O=C(N[C@H]1[C@@H](C(=O)Nc2ccc(F)c(C(F)(F)F)c2)[C@H]2CC[C@@H]1/C2=C\C1CC1)c1cc(C2=NOC3CC(CO)CC23)ccc1F (single isomer, unassigned) [compound 692] | 789
15 | COc1ccc(C2=NOC(C(C)O)C2)cc1C(=O)N[C@H]1[C@@H](C(=O)Nc2ccc(F)c(C(F)(F)F)c2)[C@H]2CC[C@@H]1/C2=C\C1CC1 (single isomer, unassigned) [compound 554] | 37.6
16 | O=C(N[C@H]1[C@@H](C(=O)Nc2ccc(F)c(C(F)(F)F)c2)[C@H]2CC[C@@H]1/C2=C\C1CC1)c1cc(C2=NOC3CC(CO)CC23)ccc1F (single isomer, unassigned) [compound 473] | 4.9
17 | COc1ccc(C2=NOC3COCC23)cc1C(=O)N[C@H]1[C@@H](C(=O)NCc2cccnc2C)[C@H]2CC[C@@H]1/C2=C\C1CC1 (some centres unmarked) [compound 721] | 3910
18 | COc1ccc(C2=NOC3CN(C(=O)OC(C)(C)C)CC23)cc1C(=O)N[C@H]1[C@@H](C(=O)Nc2ccc(F)c(C(F)(F)F)c2)[C@H]2CC[C@@H]1/C2=C\C1CC1 (mixture of isomers) [Example 434, tert-butyl 3-(3-(((1R,2R,3S,4R,Z)-7-(cyclopropylmethylene)-3-((4-fluoro-3-(trifluoromethyl)phenyl)carbamoyl)bicyclo[2.2.1]heptan-2-yl)carbamoyl)-4-methoxyphenyl)-3a,4,6,6a-tetrahydro-5H-pyrrolo[3,4-d]isoxazole-5-carboxylate] | 24
19 | CNC(=O)/C=C1\C2CCC1[C@H](C(=O)Nc1ccc(F)c(C(F)(F)F)c1)[C@@H]2NC(=O)c1cc(F)c(F)cc1OC (some centres unmarked) [compound 73] | 2400
20 | COc1c(F)cc(C2=NOC3CC(O)(C(F)(F)F)CC23)cc1C(=O)N[C@H]1[C@@H](C(=O)Nc2ccc(F)c(C(F)(F)F)c2)[C@H]2CC[C@@H]1/C2=C\C1CC(F)(F)C1 (some centres unmarked) [compound 914] | 7.8
21 | COc1ccc(-c2cc(C(F)(F)F)ccc2F)cc1C(=O)N[C@@H]1C2CCC(/C2=C/C2CC(F)(F)C2)[C@@H]1C(=O)Nc1ccc(F)c(C(F)(F)F)c1 (some centres unmarked) [compound 289] | 548

Row | Compound | EC50 [nM]
22 | COC(=O)C1CC2ON=C(c3ccc(OC)c(C(=O)N[C@H]4[C@@H](C(=O)Nc5ccc(F)c(C(F)(F)F)c5)[C@H]5CC[C@@H]4/C5=C\C4CC4)c3)C2C1 (some centres unmarked) [compound 512] | 15.7
23 | COc1ccc(C2=NOC3COCC23)cc1C(=O)N[C@H]1[C@@H](C(=O)Nc2ccccc2C)[C@H]2CC[C@@H]1/C2=C\C1CC1 (some centres unmarked) [compound 596] | 102
24 | CC(C)=C1C2CCC1[C@H](C(=O)Nc1ccc(F)c(C(F)(F)F)c1)[C@@H]2NC(=O)c1ccccc1OC(C)C (some centres unmarked) [compound 115] | 1100
25 | COc1ccc(C2=NOC3COCC23)cc1C(=O)N[C@H]1[C@@H](C(=O)NC2CCC(C(F)(F)F)C2)[C@H]2CC[C@@H]1/C2=C\C1CC1 (some centres unmarked) [compound 649] | 250
26 | COc1ccc(C2=NOC3COCC23)cc1C(=O)N[C@H]1[C@@H](C(=O)NC2CCC(C(F)(F)F)C2)[C@H]2CC[C@@H]1/C2=C\C1CC1 (single isomer, unassigned) [Example 629] | 180
27 | COc1ccc(C2=NOC3COCC23)cc1C(=O)N[C@H]1[C@@H](C(=O)N[C@@H]2CCOc3ccccc32)[C@H]2CC[C@@H]1/C2=C\C1CC1 (some centres unmarked) [compound 645] | 239
28 | COc1cc(F)c(F)cc1C(=O)N[C@@H]1C2CCC(C2=C(C)C)[C@@H]1C(=O)Nc1cccc(S(=O)(=O)C(F)(F)F)c1 (some centres unmarked) [compound 55] | 230
29 | COc1ccc(-c2ccc(C(=O)O)cc2F)cc1C(=O)N[C@H]1[C@@H](C(=O)Nc2ccc(F)c(C(F)(F)F)c2)[C@H]2CC[C@@H]1/C2=C\C1CC(F)(F)C1 [compound 919] | 3.6
30 | COc1ccc(-c2ccc(C(=O)O)cc2F)cc1C(=O)N[C@@H]1C2CCC(/C2=C/C(F)(F)F)[C@@H]1C(=O)Nc1ccc(F)c(C(F)(F)F)c1 (some centres unmarked) [compound 293] | 32
31 | C=C(C)/C=C1\C2CCC1[C@H](C(=O)Nc1ccc(F)c(C(F)(F)F)c1)[C@@H]2NC(=O)c1cc(F)c(F)cc1OC (some centres unmarked) [compound 43] | 70
32 | COc1ccc(C2=NOC3CC(CO)CC23)cc1C(=O)N[C@@H]1C2CCC(/C2=C/C2CC2)[C@@H]1C(=O)Nc1ccc(F)c(OC(F)(F)F)c1 (some centres unmarked) [compound 972] | 1.9
33 | COc1ccc(-c2cc(C(COC(=O)NC3CCC3)C(F)(F)F)ccc2F)cc1C(=O)N[C@H]1[C@@H](C(=O)Nc2ccc(F)c(C(F)(F)F)c2)[C@H]2CC[C@@H]1/C2=C\C1CCCC1 (some centres unmarked) [compound 894] | 1.3
34 | COc1cc(F)c(F)cc1C(=O)N[C@@H]1C2CCC(/C2=C2\CCc3ccccc32)[C@@H]1C(=O)Nc1ccc(F)c(C(F)(F)F)c1 (some centres unmarked) [compound 72] | 250
35 | O=C(N[C@H]1[C@@H](C(=O)Nc2ccc(F)c(C(F)(F)F)c2)[C@H]2CC[C@@H]1/C2=C\C1CC1)c1cc(C2=NOC3COCC23)ccc1OCCCF (some centres unmarked) [compound 786] | 4
36 | COc1ccc(-c2cc(CC(=O)O)ccc2F)cc1C(=O)N[C@@H]1C2CCC(/C2=C/C2CC2)[C@@H]1C(=O)Nc1ccc(F)c(C(F)(F)F)c1 (some centres unmarked) [compound 189] | 10
37 | CCC(CC)CNC(=O)[C@@H]1[C@H](NC(=O)c2cc(C3=NOC4COCC34)ccc2OC)[C@@H]2CC[C@H]1/C2=C/C1CC1 (some centres unmarked) [compound 553] | 37.4
38 | COc1ccc(-c2cc(S(=O)(=O)NC(C)(C)C)ccc2F)cc1C(=O)N[C@H]1[C@@H](C(=O)Nc2ccc(F)c(C(F)(F)F)c2)[C@H]2CC[C@@H]1/C2=C\C1CCCC1 [compound 958] | 0.9
39 | COc1ccc(-c2cc(C3=NOC(CO)C3)ccc2F)cc1C(=O)N[C@H]1[C@@H](C(=O)Nc2ccc(F)c(C(F)(F)F)c2)[C@H]2CC[C@@H]1/C2=C\C1CC1 (some centres unmarked) [compound 905] | 7
40 | COc1ccc(-c2cc(C(F)(F)F)cnc2F)cc1C(=O)N[C@@H]1C2CCC(/C2=C/C2CC2)[C@@H]1C(=O)Nc1ccc(F)c(C(F)(F)F)c1 (some centres unmarked) [compound 282] | 25
41 | COc1ccc(C2=NOC3CC(CO)CC23)cc1C(=O)N[C@H]1[C@@H](C(=O)NC23CC(C)(C2)C3)[C@H]2CC[C@@H]1/C2=C\C1CC1 (some centres unmarked) [compound 774] | 4.1
